Patent publication EP0771187B1, “NOVEL COMBINATION PRODUCT COMPRISING AN ANTIFUNGAL AGENT AND CROTAMITON AS AN ANTIFUNGAL ACTIVITY ENHANCER AND DERMATOLOGICAL OR COSMETIC COMPOSITIONS COMPRISING SAME” (Pierre Fabre Dermo-Cosmetique, priority 1994, dated 1996)

Experiments:
Format in all cases: cell-based
[1] = test system: Pityrosporium ovale sauvages dont une éco-R; experiment: Fungicidal activity: checkerboard combined with Afnor membrane filtration, 5 min contact (Example 1); conditions: pH about 8, read-out: Mg : moyenne géométrique du Log 10 de la réduction du nombre de germes; for log reduction at 2 %: product alone at 2 % (m/v); for log reduction at 4 %: product alone at 4 % (m/v)
Experimental: CMF définissant la concentration minimale de fongicide pour laquelle on obtient une diminution de 4.Log 10 de l'inoculum ensemencé en 5 minutes de contact à 20°C.
Des souches de Malassezia furfur (Pityrosporum ovale) ont été testées pour leur sensibilité vis-à-vis des principes actifs seuls ou bien en association selon l'invention.
Les souches sont issues du Laboratoire de Parasitologie du Centre Hospitalier Régional de Rangueil de TOULOUSE (France) et une souche est éconazole résistante (éco-R). Elles ont été cultivées lors des essais sur milieu Dixon solide.
(§1) La technique utilisée est originale car elle utilise à la fois le principe de la technique de l'échiquer et celui de la norme Afnor par filtration sur membrane relative à la fongicidie avec un temps de contact germe-molécules de 5 minutes.
(§2) C'est une macro-méthode qui a donc été réalisée ici avec validations à chaque essai du témoin solvant des molécules (Tween® 20 %, éthanol 17 % dans l'eau distillée).
Ce solvant inhibe légèrement l'activité de la ciclopiroxolamine, et il faut donc s'attendre à de meilleurs résultats en pratique. Les autres témoins sont celui de la vigueur de la souche et de l'efficacité des produits seuls, soit : - ciclopiroxolamine 4 % - crotamiton 4 %
Le tableau 1 représente les moyennes géométiques de la réduction logarithmique sur deux Pityrosporium ovale sauvages dont une éco-R, le nombre d'essais ainsi que le pourcentage d'efficacité.
La norme Afnor considère qu'il y a fongicidie pour une réduction de 4 Log 10 de l'inoculum après 15 minutes de contact.
Le pH de l'ensemble de ces études se situe autour de 8.

C. albicans ATCC 9021 = experiment: Fungicidal activity: checkerboard combined with Afnor membrane filtration, 5 min contact (Example 2, Table 3); conditions: Candida albicans, ATCC9021, 5 min, pH 9, read-out: Mg; for log reduction at 2 %: product alone at 2 %
Experimental: as §1, §2
(§3) L'association de l'octopirox avec le crotamiton a été testé selon la méthodologie de l'exemple 1 sur une souche Pityrosporium ovale éco-R et C. albicans ATCC 9021.
(§4) Le même solvant a été utilisé et validé à chaque essai comme le spécifie la norme Afnor.
Ces Résultats ont été confirmés sur une levure de référence Afnor (C.albicans ATCC 9021). Les résultats sont reportés dans le tableau 3.
(§5) Les essais de l'exemple 2 ont été réalisés avec un pH plus basique = 9.

P. ovale éco-R = experiment: Fungicidal activity: checkerboard combined with Afnor membrane filtration, 5 min contact (Example 2, Table 2); conditions: Pityrosporium ovale, pH 9, read-out: Mg; for log reduction at 2 %: product alone at 2 %
Experimental: as §1, §2, §3
Le tableau 2 représente les résultats obtenus sur P. ovale éco-R après cinq minutes de contact pour l'association : • crotamiton 1 % - octopirox 1 % pour lequel nous avons 100 % d'efficacité • alors que les produits seuls à double ou quadruple concentrations sont moins actifs.
as §4, §5

SMILES	log reduction at 1 % ([1]; product alone at 1 % (m/v))	log reduction at 2 % [1]	log reduction at 4 % [1]	log reduction at 2 % (C. albicans ATCC 9021)	log reduction at 4 % (C. albicans ATCC 9021; product alone at 4 %)	log reduction at 2 % (P. ovale éco-R)	log reduction at 4 % (P. ovale éco-R; product alone at 4 %)	log reduction at 1 % (C. albicans ATCC 9021; product alone at 1 %)
CC=CC(=O)N(CC)c1ccccc1C [Crota, N-éthyl-N-O-tolylcrotonamide]	0.03	0.77	3.77	2.43	4.95	1.59	3.26	–
Cc1cc(C2CCCCC2)n(O)c(=O)c1 [CPO, ciclopirox olamine]	–	0.43	2.05	–	–	–	–	–
Cc1cc(CC(C)CC(C)(C)C)n(O)c(=O)c1 (stereo not drawn) [Octo, octopirox]	–	–	–	3.18	–	1.85	–	0.36
